Here are results for three compounds from US20260297542A1, “HERBICIDE RESISTANT PLANTS” (SYNGENTA CROP PROTECTION AG, priority 2023, published 2026).

Changes are numbered by the printed parent chain.

Holding throughout (assay): E. coli hemG growth inhibition by herbicide, AtPPO1 variant
Common to all, as to format: cell-based
What all share (details): read-out: percentage growth inhibition

The target in test [1] is T1, AtPPO1 E111F (Arabidopsis thaliana, UniProt P55826, E111F).
T1 construct: expressed in transfected cells; host or cells: E. coli BL21(DE3) hemG (hemG replaced by CmR), pET24a plasmid
T1 sequence (P55826 35-537 E111F): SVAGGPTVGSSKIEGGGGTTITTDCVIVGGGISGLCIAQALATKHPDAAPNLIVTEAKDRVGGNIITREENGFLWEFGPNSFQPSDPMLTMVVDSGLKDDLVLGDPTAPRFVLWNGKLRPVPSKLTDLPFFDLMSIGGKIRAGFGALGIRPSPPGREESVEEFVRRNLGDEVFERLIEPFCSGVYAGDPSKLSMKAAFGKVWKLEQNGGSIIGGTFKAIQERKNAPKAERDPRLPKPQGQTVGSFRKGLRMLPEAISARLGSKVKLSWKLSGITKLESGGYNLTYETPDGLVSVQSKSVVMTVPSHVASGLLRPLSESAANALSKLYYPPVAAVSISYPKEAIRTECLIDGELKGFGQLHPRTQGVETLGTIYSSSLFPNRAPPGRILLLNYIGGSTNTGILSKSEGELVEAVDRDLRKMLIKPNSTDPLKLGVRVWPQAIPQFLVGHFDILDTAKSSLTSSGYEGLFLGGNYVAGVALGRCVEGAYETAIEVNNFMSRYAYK
The method, boiled down: (§1)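 E. coli BL21(DE3) ΔhemG::CmR complemented by AtPPO1 variants (pET24a, T7, E. coli codon-optimised); TB + 0.1 mM IPTG, 1:100 inoculum; 6.25 ppm herbicide 0/E or 0.78 ppm herbicide B vs DMSO; 24 h, 37° C, 250 rpm; OD600 at 24 h → % growth inhibition.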

For test [2], the target named is T2, AtPPO1 V447C (Arabidopsis thaliana, UniProt P55826, V447C).
T2 construct: expressed in transfected cells; host or cells: E. coli BL21(DE3) hemG (pET24a, T7 promoter)
T2 sequence (P55826 35-537 V447C): T1 sequence (P55826 35-537 E111F) with F77E, V413C
The method, boiled down: as §1

The target of test [3] is T3, AtPPO1 V88I (Arabidopsis thaliana, UniProt P55826, V88I).
T3 construct: expressed in transfected cells; host or cells: E. coli BL21(DE3) hemG (hemG replaced by CmR), pET24a plasmid
T3 sequence (P55826 35-537 V88I): T1 sequence (P55826 35-537 E111F) with V54I, F77E
In short, it runs like this: as §1

The target in test [4] is T4, AtPPO1 Y426C (Arabidopsis thaliana, UniProt P55826, Y426C).
T4 construct: expressed in transfected cells; host or cells: E. coli BL21(DE3) hemG (pET24a, T7 promoter)
T4 sequence (P55826 35-537 Y426C): T1 sequence (P55826 35-537 E111F) with F77E, Y392C
In short, it runs like this: as §1

The term inhibition denotes the share of the control response that was lost under treatment. `C#CCN1C(=O)C(F)(F)Oc2cc(F)c(-n3c(=O)n(C)c(=S)n(C)c3=O)cc21` [Herbicide B, trifludimoxazin]: the inhibition at 0.78 ppm in test [1] was determined as 27%; in test [2], 34%; in test [3], 32%; in test [4], 2%.

In the case of `CCOC(=O)[C@]1(C)CC(c2cc(-n3c(=O)n(C)c(=S)n(C)c3=O)c(F)cc2Cl)=NO1` [Herbicide D, ethyl (5S)-3-[2-chloro-5-(3,5-dimethyl-2,6-dioxo-4-thioxo-1,3,5-triazinan-1-yl)-4-fluoro-phenyl]-5-methyl-4H-isoxazole-5-carboxylate], the inhibition at 6.25 ppm in test [1] was 29%; in test [2], 32%; in test [3], 43%; in test [4], 34%.

On to `CC(C)N(C)S(=O)(=O)NC(=O)c1cc(-n2c(=O)cc(C(F)(F)F)n(C)c2=O)c(F)cc1Cl` [Herbicide E, saflufenacil], for which the inhibition at 6.25 ppm in test [1] worked out at 66%; in test [2], 53%; in test [3], 66%; in test [4], 4%.
